Assay [1] concerns JFH1-Rluc virus. The experiment in a line: microbe, parasite or virus in culture. It is filed as cell-based, hepatitis C virus (isolate JFH1, genotype 2a). The conditions noted are these: for relative viral infection / inhibition of viral infection: 50 μM during 2 h infection of Huh-7 cells, luciferase 48 h after infection; for relative viral infection: compared with DMSO; for inhibition of viral infection: EGCG from CALBIOCHEM or EXTRASYNTHESE

In assay [2] the test system is HCVpp expressing envelope proteins E1 and E2 of the HCV virus of genotypes 1a, 1b, 2a, 2b, 3, 4, 5, 6. It is filed as cell-based, hepatitis C virus. The following applies: for relative infection: vs DMSO.
Assay [3] concerns JFH1-Rluc virus. The experiment in a line: Split-up of HCV entry steps (attachment, receptor interaction, endocytosis/fusion), JFH-Luc in Huh-7 cells. The conditions noted are these: for step of HCV entry inhibited: entry split up into its three constituent steps, general statement of the description.
Assay [4] has as its system HCVcc. Nature of the assay: Quantitative binding test: HCVcc attachment to Huh-7 cells, HCV RNA by quantitative RT-PCR. The class given is cell-based, hepatitis C virus. The following applies: 1 hour at 4° C., MOI 10, vs DMSO; for virus attachment to the cell surface: 50 μM. On the procedure: HCVcc. For the quantitative “binding” experiments, the HCVcc virus was mass produced and purified by concentration and separation in a gradient of iodixanol. Supernatants of infected cells were precipitated with 8% PEG 6000 at 4° C. overnight and centrifuged for 25 minutes at 10 000 rpm. The pellets were resuspended in 1 mL, of PBS, loaded on a continuous iodixanol gradient (10-40%), and centrifuged at 36 000 rpm for 16 hours at 4° C. Fractions of 500 μL were collected and the titre of each fraction was determined. The most infectious fractions were combined in order to perform the experiments.
Quantitative “Bindinq” Test. The HCVcc virus was contacted with the Huh-7 cells for 1 hour at 4° C. in the presence of EGCG (50 μM), delphinidin chloride (50 μM) or porcine intestinal heparin (500 ug/mL). After 3 washes with PBS, the total RNAs (viral and cellular) were extracted using the NucleoSpin RNA II kit (Macherey-Nagel, Düren, Germany) and the HCV RNA quantified by quantitative RT-PCR (Castelain et al, J Clin Virol 2004). Heparin was used in parallel as a control.
In order to determine whether the step of attachment to the cell surface was inhibited by EGCG, quantitative “binding” (or attachment) tests have been carried out. The action of delphinidin chloride was tested in parallel. Heparin, a known inhibitor of HCV attachment to the cell surface, was used as a positive control. The cells were incubated with HCVcc purified to a multiplicity of infection of 10 for 1 hour at 4° C. in the presence of DMSO, 50 M of EGCG, 50 μM of delphinidin chloride or 500 μg/mL of heparin. The cells were washed 3 times with cold PBS and the total RNA extracted. The amount of virus fixed was determined by quantifying the viral genomic RNA by means of quantitative RT-PCR.

In the next assay the test system is HCV viral replication. Nature of the assay: Viral replication (results not shown). The class given is cell-based, hepatitis C virus.
The subject of the next assay is Sindbis virus (SINV). The class given is cell-based. The conditions noted are these: Huh-7 cells, EGCG 50 μM vs DMSO.
Assay [5] has as its system VSVpp (virus like particles expressing the envelope protein of VSV). It is filed as cell-based, vesicular stomatitis virus.
The next assay concerns yellow fever virus (YFV). The class given is cell-based. The following applies: Huh-7 cells, EGCG 50 μM vs DMSO.
Another assay relates to HCV JFH1. Nature of the assay: Successive infections with supernatants of infected cells (passages P0 to P4). The conditions noted are these: 50 μM EGCG, passages P0 to P4, 48 h each.
Assay [6] relates to bovine viral diarrhoea virus (BVDV). It is filed as cell-based. The following applies: MDBK cells, EGCG 50 μM vs DMSO.
Another assay relates to JFH1 virus. The experiment in a line: Cell to cell transmission of HCVcc (JFH1) in Huh-7 cells under agarose. It is filed as cell-based, hepatitis C virus. The conditions noted are these: EGCG 50 μM in 1% agarose medium, 72 h post-infection; control sites average 45. As for the experimental part: The Huh-7 cells cultured in 24 well plates are infected with HCVcc over a period of 2 hours. The inoculum was eliminated and replaced by DMEM medium supplemented with GLUTAMAX®-1,10% of FCS and 1% low melting point agarose gel (SeaPlaque® Agarose marketed by LONZA®) containing EGCG (50 μM) or an equivalent volume of Dimethyl Sulfoxide (DMSO) as a control. The cells are incubated at 37° C. over a period of 3 days at the end of which the agarose is eliminated and the infection sites are detected using indirect immunofluorescence for HCV E1 protein as previously described.
A second mode of viral infection is the transmission of the virus from cell to cell. […] The agarose prevents infection of cells by the virus secreted into the medium and thus makes it possible to observe the cell to cell transmission of the virus by virtue of the cells being in contact amongst themselves.
At seventy-two hours post-infection, the cells were fixed and infection was detected by immunofluorescence after labelling with an anti-E1 antibody. A step of detection is then carried out with a Cy3 coupled secondary antibody. The nuclei are stained with DAPI staining. The number of cells per infection site was quantified (FIG. 5). In the presence of EGCG the infection sites are much smaller. They contain an average of 3-4 infected cells showing that the virus has not propagated after infecting a cell. […]

Assay [7] relates to HCVcc. Nature of the assay: microbe, parasite or virus in culture. The class given is cell-based.
Where [8] appears, read: genotypes 1a, 1b, 2a, 2b, 3, 4, 5 and 6, general statement of the description, no concentration.

Results on seven compounds are retold here after patent US20140088184A1 (priority 2011, published 2014).

Where two headings read alike, the source gives them in different places.

As for `Oc1cc(O)c2c(c1)O[C@H](c1ccc(O)c(O)c1)[C@H](O)C2` [(−)-epicatechin, reference compound], the relative viral infection entry in the assay on JFH1-Rluc virus [1] is “identical to that observed for DMSO”.

Turning to `O=C(O[C@@H]1Cc2c(O)cc(O)cc2O[C@@H]1c1ccc(O)c(O)c1)c1cc(O)c(O)c(O)c1` [ECG, (2R,3R)-2-(3,4-Dihydroxyphenyl)-3,4-dihydro-1(2H)-benzopyran-3,5,7-triol 3-(3,4,5-trihydroxybenzoate)], the “inhibitory effect across viral genotypes of HCV” value in [2] (setting [8]) is given as “observed in all the viral genotypes of HCV”. The “step of HCV entry inhibited” value in the assay on JFH1-Rluc virus [3] is “only the step of attachment is inhibited”. The “inhibition of viral infection” value in the assay with JFH1-Rluc virus [1] was “about 40%”.

Turning to `Oc1cc(O)c2c(c1)O[C@H](c1ccc(O)c(O)c1)[C@@H](O)C2` [(+)-catechin, reference compound], the relative viral infection result with JFH1-Rluc virus [1] is recorded as “identical to that observed for DMSO”.

Take heparin [reference compound]: the “attachment of the virus to the surface of cells” value in the assay on HCVcc [4] (500 μg/mL, positive control) is on record as “greatly reduced”.

Regarding `O=C(O[C@@H]1Cc2c(O)cc(O)cc2O[C@@H]1c1cc(O)c(O)c(O)c1)c1cc(O)c(O)c(O)c1` [EGCG, (2R,3R)-5,7-dihydroxy-2-(3,4,5-trihydroxyphenyl)-3,4-dihydro-2H-chromen-3-yl 3,4,5-trihydroxybenzoate], the viral replication result in the assay on HCV viral replication is given as “not affected”. Moreover, the “effect on cell infection” value (in the assay with Sindbis virus (SINV); in the assay on yellow fever virus (YFV); in [6]) was “does not have an inhibitory effect” throughout. Besides, the “virus attachment to the cell surface” value with HCVcc [4] is recorded as “strong decrease”. In addition, in [2] (EGCG 50 μM), the “effect on the infection by HCVpp of all genotypes tested” value is recorded as “inhibitory effect”. Also, the relative infection entry is “substantially nil” in [2] (HCVpp genotype 1b, EGCG 50 μM); “substantially nil” in assay [2] (HCVpp genotype 2a, EGCG 50 μM); “substantially nil” in assay [2] (HCVpp genotype 2b, EGCG 50 μM); “substantially nil” in assay [2] (HCVpp genotype 4, EGCG 50 μM). Besides, the “inhibitory effect across viral genotypes of HCV” value in [2] (setting [8]) is given as “observed in all the viral genotypes of HCV”. In addition, the “effect on infection by the VSVpp” value in assay [5] is given as “no effect”. In [5], this compound registered a relative infection rate of 85%. For the same compound, the “percentage of cells infected in each passage of supernatant” value with HCV JFH1 is “elimination of HCV from the culture supernatant from the third passage onwards and the complete elimination in the fourth passage”. Besides, the “infection (luciferase activity)” value is listed as “significant reduction of infection” in the assay on JFH1-Rluc virus [3] (50 μM EGCG during all three steps of viral entry (Sample 5)); “significant reduction of infection” with JFH1-Rluc virus [3] (50 μM EGCG during the step of attachment, 1 h at 4° C. (Sample 2)); “does not seem to have any effect” in the assay with JFH1-Rluc virus [3] (50 μM EGCG during the step of endocytosis or fusion, 1 h at 37° C. (Sample 4)); “does not seem to have any effect” in the assay on JFH1-Rluc virus [3] (50 μM EGCG during the step of interaction with host cell receptors (Sample 3)). In the assay on JFH1-Rluc virus [3], the “step of HCV entry inhibited” value was “only the step of attachment is inhibited”. In addition, in the assay on JFH1-Rluc virus [1] (50 μM EGCG during 2 h infection of Huh-7 cells), the “decrease of viral infection (factor)” value is “greater than 10”. In addition, the “inhibition of viral infection” value with JFH1-Rluc virus [1] is given as “greater than 95%”. Also, the IC50 in the assay on JFH1-Rluc virus [1] (Hepatitis C virus, Huh-7, read-out: IC50 (viral infection)) is 5 µM; in the assay with HCVcc [7] (Hepatitis C virus, Huh-7; read-out: IC50 (concentration inhibiting 50% infection)), approximately 11 µM. Moreover, the “effect on viral entry” value in the assay with JFH1-Rluc virus [1] (non infected cells treated with the molecule before or after infection) is “no effect”. Moreover, the “inhibitory effect with pretreated virus” value with JFH1-Rluc virus [1] (virus incubated 45 minutes with 50 μM EGCG before infection) is “increase in the inhibitory effect”. The “number of cells per infection site (average)” value in the assay on JFH1 virus is 3-4 infected cells.

With `Oc1cc(O)c2c(c1)O[C@H](c1cc(O)c(O)c(O)c1)[C@H](O)C2` [EGC, (2R,3R)-2-(3,4,5-trihydroxyphenyl) chroman-3,5,7-triol], in assay [2] (setting [8]), the “inhibitory effect across viral genotypes of HCV” value is “observed in all the viral genotypes of HCV”. For the same compound, the “step of HCV entry inhibited” value with JFH1-Rluc virus [3] is “only the step of attachment is inhibited”. In addition, the “inhibition of viral infection” value with JFH1-Rluc virus [1] is listed as approximately 80%.

For the compound `Oc1cc(O)c2cc(O)c(-c3cc(O)c(O)c(O)c3)[o+]c2c1` [delphinidin chloride, 3,3′,4′,5,5′,7-Hexahydroxyflavylium chloride], in the assay on HCVcc [4], the “virus attachment to the cell surface” value is given as “strong decrease”. The “inhibitory effect across viral genotypes of HCV” value in assay [2] is listed as “observed in all the viral genotypes of HCV”. Moreover, in the assay with JFH1-Rluc virus [3], the “step of HCV entry inhibited” value is recorded as “only the step of attachment is inhibited”. In the assay on HCVcc [7] (Hepatitis C virus, Huh-7, read-out: IC50 (concentration inhibiting 50% infection)), the IC50 is approximately 3.5 µM.
